Results on 1 compound are retold here after ChEMBL document CHEMBL1145484, “Evaluation of the metS and murB loci for antibiotic discovery using targeted antisense RNA expression analysis in Bacillus anthracis” (2007).

≈ marks a conversion by molar mass, not a printed value.

The test concerns Bacillus anthracis. Briefly: Antibacterial activity against Bacillus anthracis UM23C1-1. It counts as functional.

The MIC is the smallest concentration in the dilution series that meets the test's criterion for growth inhibition. A low value points to greater potency. In turn, `O=C(O)c1ccc(OCc2nc3ccccc3[nH]2)c(OCc2ccc(Cl)cc2Cl)c1` registered an MIC of 2 µg/mL (≈ 4.51 µM).
